In ChEMBL document CHEMBL4376865, “Discovery and Characterization of 1H-1,2,3-Triazole Derivatives as Novel Prostanoid EP4 Receptor Antagonists for Cancer Immunotherapy” (J Med Chem, 2020):
pIC50: −log10 of the molar value.

Legend:
[1] = target: T1, Prostaglandin E2 receptor EP1 subtype (Homo sapiens, UniProt P34995); assay: Antagonist activity at human EP1 expressed in CHO cells coexpressing G16-alpha assessed as intracellular calcium flux preincubated for 15 mins followed by addition of PGE2 by calcium flux assay; assay type: functional, cell-based
T1 sequence (P34995 whole entry): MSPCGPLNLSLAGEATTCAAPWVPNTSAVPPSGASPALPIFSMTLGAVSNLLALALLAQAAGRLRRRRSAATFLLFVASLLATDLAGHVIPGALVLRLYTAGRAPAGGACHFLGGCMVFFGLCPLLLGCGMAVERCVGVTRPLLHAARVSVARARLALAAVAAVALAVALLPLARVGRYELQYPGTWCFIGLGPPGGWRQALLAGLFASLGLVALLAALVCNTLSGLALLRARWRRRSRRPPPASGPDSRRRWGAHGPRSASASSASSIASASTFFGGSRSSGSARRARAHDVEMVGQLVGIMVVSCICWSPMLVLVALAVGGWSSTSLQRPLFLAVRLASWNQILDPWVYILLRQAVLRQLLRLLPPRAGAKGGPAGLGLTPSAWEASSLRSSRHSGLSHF

[2] = Metabolic stability in human liver microsomes assessed as compound remaining at 10 uM incubated for 1 hr
[3] = Metabolic stability in CD1 mouse liver microsomes assessed as compound remaining at 10 uM incubated for 1 hr
[4] = Clearance in BALB/c mouse at 1 mg/kg, iv measured upto 24 hrs by LC-MS/MS analysis; details: in vivo
[5] = Half life in BALB/c mouse at 1 mg/kg, iv measured upto 24 hrs by LC-MS/MS analysis; details: in vivo
[6] = target: T2, Prostaglandin E2 receptor EP4 subtype (Homo sapiens, UniProt P35408); assay: Inhibition of human EP4 transfected in human HEK293 cells assessed as reduction in PGE2-induced cAMP level incubated for 15 mins followed by PGE2 stimulation and measured every 2 mins for 30 mins by GloSensor cAMP Assay
[7] = target: T2, Prostaglandin E2 receptor EP4 subtype; assay: Inhibition of human EP4 transfected in human HEK293 cells co transfected with SmBit-beta-arrestin. assessed as reduction in PGE2 induced-beta-arrestin recruitment by NanoBiT beta-arrestin recruitment assay
CT26 = assay: Antitumor activity against mouse CT26 cells xenografted in BALB/c mouse assessed as tumor growth inhibition at 50 mg/kg, po administerd daily and measured after two weeks; details: 336 h, read-out: TGI
[8] = target: Prostaglandin E2 receptor EP2 subtype (Homo sapiens, UniProt P43116)
Description: Antagonist activity at human EP2 expressed in CHO cells coexpressing G16-alpha assessed as intracellular calcium flux preincubated for 15 mins followed by addition of PGE2 by calcium flux assay

in vivo [9] = details: BALB/c, mouse, iv, 1 mg/kg
in vivo [10] = details: BALB/c, mouse, po, 5 mg/kg
Description: AUC (0 to infinity) in BALB/c mouse at 5 mg/kg, po measured upto 24 hrs by LC-MS/MS analysis

in vitro = details: CD1, mouse, liver microsomes

T2 sequence (P35408 whole entry): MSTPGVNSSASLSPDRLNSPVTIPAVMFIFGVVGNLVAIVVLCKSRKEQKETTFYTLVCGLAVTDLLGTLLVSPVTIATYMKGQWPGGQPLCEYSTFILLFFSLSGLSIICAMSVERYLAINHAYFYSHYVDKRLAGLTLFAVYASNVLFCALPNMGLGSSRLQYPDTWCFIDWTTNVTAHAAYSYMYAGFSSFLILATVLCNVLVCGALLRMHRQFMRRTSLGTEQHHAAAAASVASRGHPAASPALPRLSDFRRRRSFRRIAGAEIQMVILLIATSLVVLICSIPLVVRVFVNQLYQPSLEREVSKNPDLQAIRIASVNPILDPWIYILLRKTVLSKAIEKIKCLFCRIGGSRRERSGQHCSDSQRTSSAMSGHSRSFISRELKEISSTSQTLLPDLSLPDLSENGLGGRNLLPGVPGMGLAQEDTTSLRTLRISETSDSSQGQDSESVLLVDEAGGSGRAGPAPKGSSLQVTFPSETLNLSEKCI
Prostaglandin E2 receptor EP2 subtype, sequence (P43116 whole entry): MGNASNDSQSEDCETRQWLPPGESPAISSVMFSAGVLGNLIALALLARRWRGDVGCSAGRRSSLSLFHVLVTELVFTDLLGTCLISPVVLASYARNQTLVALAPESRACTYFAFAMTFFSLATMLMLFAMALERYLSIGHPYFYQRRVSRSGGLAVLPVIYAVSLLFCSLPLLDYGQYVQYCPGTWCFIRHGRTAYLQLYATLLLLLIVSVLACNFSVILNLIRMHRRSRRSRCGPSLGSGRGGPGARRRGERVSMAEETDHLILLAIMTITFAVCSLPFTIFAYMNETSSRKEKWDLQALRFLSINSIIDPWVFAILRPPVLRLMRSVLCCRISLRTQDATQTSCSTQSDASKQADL

SMILES: C/C=C/c1nnn(Cc2ccc(C(F)(F)F)cc2)c1C(=O)N[C@@H](C)c1ccc(C(=O)O)cc1
- pIC50 [1]: < 5.00
- remaining at 1 h, 10 µM [2]: 100%
- remaining at 1 h, 10 µM [3]: 82%
- clearance at 24 h [4]: 28.3 mL/min/kg
- half-life at 24 h [5]: 4.1 h
- pIC50 [6]: 7.73
- Kb [6]: 5.62 nM
- pIC50 [7]: 9.40
- inhibition in vivo at 50 mg/kg (CT26): 54.7%
- pIC50 [8]: < 5.00
- AUC(0-inf) at 24 h (in vivo [9]): 575 ng·h/mL
- AUC(0-inf) at 24 h (in vivo [10]): 1240 ng·h/mL
- microsomal CLint at 1 h, 10 µM (in vitro): < 9.6 µL/min/mg
